Laboratory results published in ChEMBL document CHEMBL1158409, “Discovery of 3,5-disubstituted-1H-pyrrolo[2,3-b]pyridines as potent inhibitors of the insulin-like growth factor-1 receptor (IGF-1R) tyrosine kinase” (Bioorg Med Chem Lett, 2009).

How the values were obtained:
[1] = target: T1, Insulin-like growth factor 1 receptor (Homo sapiens, UniProt P08069); test: Inhibition of GST-tagged human IGF1R expressed in Sf9-baculovirus system
[2] = target: T1, Insulin-like growth factor 1 receptor; test: Inhibition of IGF1-induced human IGF1R phosphorylation expressed in mouse NIH-3T3 cells treated 2 hrs prior to IGF1 challenge by DELFIA
[3] = target: T2, Inhibitor of nuclear factor kappa-B kinase subunit alpha (Homo sapiens, UniProt O15111); test: Inhibition of IKK1
T2 sequence (O15111 whole entry): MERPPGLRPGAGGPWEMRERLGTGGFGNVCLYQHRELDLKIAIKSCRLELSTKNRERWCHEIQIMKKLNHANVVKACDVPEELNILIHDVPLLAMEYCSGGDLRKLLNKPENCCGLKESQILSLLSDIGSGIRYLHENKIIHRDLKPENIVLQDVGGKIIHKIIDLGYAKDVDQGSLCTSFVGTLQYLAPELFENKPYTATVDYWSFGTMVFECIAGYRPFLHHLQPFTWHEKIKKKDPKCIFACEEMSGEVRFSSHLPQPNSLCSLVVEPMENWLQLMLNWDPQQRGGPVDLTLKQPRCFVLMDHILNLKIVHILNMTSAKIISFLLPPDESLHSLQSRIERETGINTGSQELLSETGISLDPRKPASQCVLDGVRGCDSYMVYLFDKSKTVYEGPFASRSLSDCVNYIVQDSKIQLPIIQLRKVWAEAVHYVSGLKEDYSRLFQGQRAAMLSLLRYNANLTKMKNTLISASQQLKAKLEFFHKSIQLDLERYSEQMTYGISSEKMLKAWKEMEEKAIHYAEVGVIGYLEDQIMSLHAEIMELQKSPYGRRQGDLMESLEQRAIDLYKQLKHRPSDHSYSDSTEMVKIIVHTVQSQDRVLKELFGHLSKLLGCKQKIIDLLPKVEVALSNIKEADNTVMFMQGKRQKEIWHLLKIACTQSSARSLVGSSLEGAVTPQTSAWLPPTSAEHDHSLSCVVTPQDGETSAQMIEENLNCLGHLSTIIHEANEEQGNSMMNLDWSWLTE

[4] = target: Tyrosine-protein kinase SYK (Homo sapiens, UniProt P43405); test: Inhibition of SYK
[5] = target: Tyrosine-protein kinase Lyn (Homo sapiens, UniProt P07948); test: Inhibition of LYN
Tyrosine-protein kinase Lyn, sequence (P07948 whole entry): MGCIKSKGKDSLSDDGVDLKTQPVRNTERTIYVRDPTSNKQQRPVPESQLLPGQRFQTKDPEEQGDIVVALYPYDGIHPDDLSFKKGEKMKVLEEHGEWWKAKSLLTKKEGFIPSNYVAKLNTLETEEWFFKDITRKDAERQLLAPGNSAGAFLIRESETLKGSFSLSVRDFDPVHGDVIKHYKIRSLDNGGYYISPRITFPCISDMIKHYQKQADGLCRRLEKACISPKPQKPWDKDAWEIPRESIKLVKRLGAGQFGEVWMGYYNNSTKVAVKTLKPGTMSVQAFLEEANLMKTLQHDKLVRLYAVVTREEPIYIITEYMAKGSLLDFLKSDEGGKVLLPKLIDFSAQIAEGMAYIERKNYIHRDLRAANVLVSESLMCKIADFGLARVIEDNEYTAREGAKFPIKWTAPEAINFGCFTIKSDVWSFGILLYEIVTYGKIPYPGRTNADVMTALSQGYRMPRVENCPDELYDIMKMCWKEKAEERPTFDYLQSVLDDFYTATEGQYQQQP

[6] = target: Mitogen-activated protein kinase 10 (Homo sapiens, UniProt P53779); test: Inhibition of JNK3
Mitogen-activated protein kinase 10, sequence (P53779 whole entry): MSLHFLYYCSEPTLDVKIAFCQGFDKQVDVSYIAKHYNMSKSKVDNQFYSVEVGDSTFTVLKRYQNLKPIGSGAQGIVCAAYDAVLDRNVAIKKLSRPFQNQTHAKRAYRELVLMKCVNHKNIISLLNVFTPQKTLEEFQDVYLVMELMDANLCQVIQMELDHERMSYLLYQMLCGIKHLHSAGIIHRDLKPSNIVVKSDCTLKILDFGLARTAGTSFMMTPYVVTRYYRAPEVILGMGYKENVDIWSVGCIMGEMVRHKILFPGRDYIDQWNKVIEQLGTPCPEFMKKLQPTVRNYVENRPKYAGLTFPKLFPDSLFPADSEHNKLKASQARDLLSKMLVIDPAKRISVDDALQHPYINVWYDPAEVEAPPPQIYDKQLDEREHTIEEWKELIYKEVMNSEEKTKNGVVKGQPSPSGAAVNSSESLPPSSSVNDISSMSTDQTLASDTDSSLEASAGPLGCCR

[7] = target: T3, Inhibitor of nuclear factor kappa-B kinase subunit beta (Homo sapiens, UniProt O14920); test: Inhibition of IKK2
T3 sequence (O14920 whole entry): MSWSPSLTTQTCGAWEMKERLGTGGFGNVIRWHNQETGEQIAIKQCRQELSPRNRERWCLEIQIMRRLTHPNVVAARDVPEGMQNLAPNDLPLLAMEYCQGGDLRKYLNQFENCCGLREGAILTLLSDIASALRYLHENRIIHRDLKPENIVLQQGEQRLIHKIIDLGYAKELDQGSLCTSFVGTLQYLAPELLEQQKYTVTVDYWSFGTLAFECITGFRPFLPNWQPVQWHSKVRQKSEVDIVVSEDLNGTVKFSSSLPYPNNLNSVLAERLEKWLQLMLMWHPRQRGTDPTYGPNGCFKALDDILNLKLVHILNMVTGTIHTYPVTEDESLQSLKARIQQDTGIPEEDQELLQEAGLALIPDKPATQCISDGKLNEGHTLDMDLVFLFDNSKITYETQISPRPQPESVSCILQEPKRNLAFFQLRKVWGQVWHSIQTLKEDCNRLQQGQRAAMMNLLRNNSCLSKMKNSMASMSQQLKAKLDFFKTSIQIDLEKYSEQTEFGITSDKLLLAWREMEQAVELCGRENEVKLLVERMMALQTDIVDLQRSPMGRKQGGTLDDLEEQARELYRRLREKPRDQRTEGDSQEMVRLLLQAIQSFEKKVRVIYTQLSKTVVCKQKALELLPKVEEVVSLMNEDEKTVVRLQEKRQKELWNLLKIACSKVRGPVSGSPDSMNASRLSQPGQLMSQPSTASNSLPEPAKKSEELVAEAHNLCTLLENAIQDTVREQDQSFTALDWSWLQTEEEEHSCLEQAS

[8] = target: Mitogen-activated protein kinase 8 (Homo sapiens, UniProt P45983); test: Inhibition of JNK1
Mitogen-activated protein kinase 8, sequence (P45983 whole entry): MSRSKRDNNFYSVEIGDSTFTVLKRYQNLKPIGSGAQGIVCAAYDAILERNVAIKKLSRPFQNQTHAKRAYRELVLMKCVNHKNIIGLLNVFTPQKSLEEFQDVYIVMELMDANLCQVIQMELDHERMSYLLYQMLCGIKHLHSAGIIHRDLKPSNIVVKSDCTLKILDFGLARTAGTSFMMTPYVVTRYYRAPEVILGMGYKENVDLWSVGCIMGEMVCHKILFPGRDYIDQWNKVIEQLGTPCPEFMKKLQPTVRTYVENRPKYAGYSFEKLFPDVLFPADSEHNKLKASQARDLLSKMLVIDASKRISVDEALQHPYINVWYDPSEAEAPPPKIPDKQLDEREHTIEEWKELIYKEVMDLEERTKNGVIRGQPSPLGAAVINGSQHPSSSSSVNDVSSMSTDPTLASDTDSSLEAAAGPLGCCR

T1 sequence (P08069 31-736 limits assumed): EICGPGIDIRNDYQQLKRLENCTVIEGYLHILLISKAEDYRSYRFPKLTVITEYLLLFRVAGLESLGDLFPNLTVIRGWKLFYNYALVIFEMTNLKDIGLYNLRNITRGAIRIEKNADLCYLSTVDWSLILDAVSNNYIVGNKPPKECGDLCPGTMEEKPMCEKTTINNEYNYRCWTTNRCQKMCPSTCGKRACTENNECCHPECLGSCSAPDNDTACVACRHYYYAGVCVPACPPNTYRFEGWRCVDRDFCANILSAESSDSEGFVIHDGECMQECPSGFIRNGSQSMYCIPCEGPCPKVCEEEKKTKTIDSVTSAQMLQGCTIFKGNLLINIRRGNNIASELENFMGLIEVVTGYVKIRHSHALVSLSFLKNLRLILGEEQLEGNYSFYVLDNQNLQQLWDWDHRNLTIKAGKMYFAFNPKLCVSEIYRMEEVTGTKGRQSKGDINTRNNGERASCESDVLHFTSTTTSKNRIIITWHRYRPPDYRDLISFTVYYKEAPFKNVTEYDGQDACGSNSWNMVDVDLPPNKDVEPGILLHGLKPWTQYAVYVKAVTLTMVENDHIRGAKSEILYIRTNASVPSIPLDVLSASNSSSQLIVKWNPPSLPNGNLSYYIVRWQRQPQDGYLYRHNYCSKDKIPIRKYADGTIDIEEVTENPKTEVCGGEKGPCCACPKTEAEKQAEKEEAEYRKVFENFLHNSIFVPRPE
T1 sequence (P08069 741-1367 limits assumed): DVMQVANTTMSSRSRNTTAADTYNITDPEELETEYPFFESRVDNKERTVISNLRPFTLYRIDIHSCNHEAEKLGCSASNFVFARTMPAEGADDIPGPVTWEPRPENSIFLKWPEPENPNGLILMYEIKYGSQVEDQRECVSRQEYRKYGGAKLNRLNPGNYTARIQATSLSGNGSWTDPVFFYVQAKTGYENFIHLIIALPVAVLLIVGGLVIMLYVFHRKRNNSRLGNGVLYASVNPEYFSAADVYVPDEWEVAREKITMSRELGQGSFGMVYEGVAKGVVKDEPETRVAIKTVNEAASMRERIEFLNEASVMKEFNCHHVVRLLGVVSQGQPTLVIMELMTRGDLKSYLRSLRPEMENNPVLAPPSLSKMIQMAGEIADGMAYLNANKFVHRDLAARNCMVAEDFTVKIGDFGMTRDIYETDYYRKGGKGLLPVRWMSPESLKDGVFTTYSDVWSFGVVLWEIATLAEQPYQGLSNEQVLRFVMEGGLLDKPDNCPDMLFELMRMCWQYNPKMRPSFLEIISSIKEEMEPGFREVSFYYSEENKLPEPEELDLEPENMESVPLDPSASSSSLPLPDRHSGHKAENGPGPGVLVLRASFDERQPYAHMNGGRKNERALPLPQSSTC

Row | IC50 [1] [nM] | IC50 [2] [nM] | Compound | further results
1 | 184 | 1040 | O=C(Nc1cccc(-c2c[nH]c3ncc(-c4cccc(C(=O)O)c4)cc23)c1)Nc1ccccc1Oc1ccccc1 | 
2 |  | 20800 | CN(C)S(=O)(=O)c1ccc(-c2cnc3[nH]cc(-c4cccc(NC(=O)Nc5ccccc5Oc5ccccc5)c4)c3c2)cc1 | 
3 | 132 | 517 | CN(C)C(=O)c1cccc(-c2cnc3[nH]cc(-c4cccc(NC(=O)Nc5ccccc5OCc5ccccc5)c4)c3c2)c1 | 
4 | 4 |  | CN(C)CCNC(=O)c1cccc(-c2cnc3[nH]cc(-c4cccc(NC(=O)Nc5ccccc5Oc5ccccc5)c4)c3c2)c1 | 
5 | 21 | 68 | CN(C)C(=O)c1cccc(-c2cnc3[nH]cc(-c4cccc(NC(=O)Nc5ccccc5Oc5ccccc5)c4)c3c2)c1 | 
6 | 210 | 3620 | O=C(O)CCc1ccc(-c2cnc3[nH]cc(-c4cccc(NC(=O)Nc5ccccc5Oc5ccccc5)c4)c3c2)cc1 | 
7 | 251 | 1260 | O=C(Nc1cccc(-c2c[nH]c3ncc(-c4ccoc4)cc23)c1)Nc1ccccc1Oc1ccccc1 | 
8 | 31 | 128 | CN(C)C(=O)c1ccc(-c2cnc3[nH]cc(-c4cccc(NC(=O)Nc5ccccc5Oc5ccccc5)c4)c3c2)cc1 | 
9 | 127 | 693 | O=C(Nc1cccc(-c2c[nH]c3ncc(-c4ccccc4)cc23)c1)Nc1ccccc1Oc1ccccc1 | 
10 | 4 | 415 | CN(C)CCNC(=O)c1ccc(-c2cnc3[nH]cc(-c4cccc(NC(=O)Nc5ccccc5Oc5ccccc5)c4)c3c2)cc1 | 
11 | 57 | 1120 | CN(C)S(=O)(=O)c1cccc(-c2cnc3[nH]cc(-c4cccc(NC(=O)Nc5ccccc5Oc5ccccc5)c4)c3c2)c1 | 

The next lines start with the molecule.

Row | Compound | IC50 [1] [nM] | IC50 [2] [nM] | further results
12 | CN(C)CCNC(=O)c1cccc(-c2cnc3[nH]cc(-c4cccc(NC(=O)Nc5ccc(C(F)(F)F)cc5F)c4)c3c2)c1 | 67 |  | 
13 | O=C(Nc1ccccc1)Nc1cccc(-c2c[nH]c3ncc(-c4ccccc4)cc23)c1 | 749 |  | 
14 | CN1CCN(C(=O)c2cccc(-c3cnc4[nH]cc(-c5cccc(NC(=O)Nc6ccc(C(F)(F)F)cc6F)c5)c4c3)c2)CC1 | 335 |  | 
15 | NCc1ccc(-c2cnc3[nH]cc(-c4cccc(NC(=O)Nc5cccc(Cl)c5)c4)c3c2)cc1 | 20 |  | 
16 | NCc1ccc(-c2cnc3[nH]cc(-c4cccc(NC(=O)Nc5ccc(C(F)(F)F)cc5F)c4)c3c2)cc1 | 50 |  | IC50 [3]: 32 nM; IC50 [4]: 80 nM; IC50 [5]: 40 nM; IC50 [6]: 250 nM; IC50 [7]: 79 nM; IC50 [8]: 79 nM
17 | CN(C)C(=O)c1cccc(-c2cnc3[nH]cc(-c4cccc(NC(=O)Nc5ccccc5Nc5ccccc5)c4)c3c2)c1 | 39 | 407 | 
18 | CN1CCN(C(=O)c2ccc(-c3cnc4[nH]cc(-c5cccc(NC(=O)Nc6ccc(C(F)(F)F)cc6F)c5)c4c3)cc2)CC1 | 286 |  | 
19 | Nc1cccc(-c2cnc3[nH]cc(-c4cccc(NC(=O)Nc5ccc(C(F)(F)F)cc5F)c4)c3c2)c1 | 242 |  | 
20 | O=C(Nc1cccc(-c2c[nH]c3ncc(-c4ccccc4)cc23)c1)Nc1ccc(C(F)(F)F)cc1F | 1260 |  | 
21 | O=C(Nc1cccc(Cl)c1)Nc1cccc(-c2c[nH]c3ncc(-c4ccccc4)cc23)c1 | 1020 |  | 
22 | COc1ccc(-c2cnc3[nH]cc(-c4cccc(NC(=O)Nc5ccc(C(F)(F)F)cc5F)c4)c3c2)cc1OC | 2200 |  | 
23 | Nc1ccc(-c2cnc3[nH]cc(-c4cccc(NC(=O)Nc5ccc(C(F)(F)F)cc5F)c4)c3c2)cc1 | 200 |  | 
24 | CN(C)C(=O)c1cccc(-c2cnc3[nH]cc(-c4cccc(NC(=O)Nc5ccc(Oc6ccccc6)cc5)c4)c3c2)c1 | 2040 | 3070 | 
25 | CN(C)CCNC(=O)c1ccc(-c2cnc3[nH]cc(-c4cccc(NC(=O)Nc5ccc(C(F)(F)F)cc5F)c4)c3c2)cc1 | 36 |  | 
26 | CN(C)C(=O)c1cccc(-c2cnc3[nH]cc(-c4cccc(NC(=O)Nc5cccc(Oc6ccccc6)c5)c4)c3c2)c1 | 212 | 961 | 
27 | O=C(Nc1cccc(-c2c[nH]c3ncc(-c4cccc(F)c4)cc23)c1)Nc1ccc(C(F)(F)F)cc1F | 605 |  | 
